Data set [1] deals with Rattus norvegicus. As to conditions: subchronic, oral, M/F.
The subject of data set [2] is Rattus norvegicus. The following applies: for LEL: uterotrophic, Active.
Data set [3] concerns Mus musculus. As to conditions: uterotrophic, Active.
The subject of data set [4] is Rattus norvegicus. As to conditions: oral.
In data set [5] the test system is Rattus norvegicus. The following applies: chronic, oral.
Data set [6] concerns Rattus norvegicus. The following applies: short-term; duration: 3 days; injection; subcutaneous; F; Crj:CD; uterus: uterine dry weight (absolute).
The test system of data set [7] is Oryctolagus sp. As to conditions: acute; oral.
Data set [8] has as its system Rattus norvegicus. As to conditions: for NOAEL: Sprague-Dawley.
Setting [9] is: duration: 14 days, injection, subcutaneous.
Where [10] appears, read: duration: 0.17 days, injection, subcutaneous.
The mark [11] stands for this setting: duration: 3 days, injection, intraperitoneal.
The mark [12] stands for this setting: duration: 1 years, blood pressure and body weight histopathological liver, kidney and spleen.
Setting [13] is: duration: 2 years, diet, M/F, reduced weight gains hematological females.
[14] abbreviates: duration: 1 days, injection, subcutaneous.
Setting [15] is: duration: 7 days, injection, subcutaneous.

Values joined by “and” are separate entries in the source; they are usually repeats but may differ in a detail not shown here. Identical values can stand only once.

As usually defined, the LOAEL is the lowest dose or exposure tested at which an adverse effect was seen. Usually NOAEL stands for the highest dose or exposure tested at which no adverse effect was seen. What is called LD50 is the dose expected to kill half of the subjects tested. A lower LD50 goes with greater toxicity. As a reminder, the LC50 is the concentration lethal to half of the exposed cells or organisms. A low value points to a more lethal substance.

Take `O=c1c(-c2ccc(O)cc2)coc2cc(O)cc(O)c12` [Genistein]: the NOEL in data set [1] (diet, Wistar, Body Weight Changes: decrease + Food Consumption: decrease + Hematology: RBC decrease, Ret increase, , Hgb decrease + Blood Chemistry: gamma…) was determined as 50 mg/kg-day. In addition, the LEL amounted to 1.25 mg in data set [2] (duration: 0 days, injection, intraperitoneal); 0.4 mg in data set [2] (duration: 1 days, injection, intraperitoneal); 1.25 mg/day in data set [2] (duration: 3.5 days, injection, subcutaneous); 100 mg/kg-day in data set [2] (duration: 4 days, oral); 375 mg/kg-day in data set [2] (duration: 5 days, oral, diet); 60 mg/kg-day in data set [2] (duration: 7 days, oral). The LEL amounted to 250 mg/kg-day in data set [2] (setting [9]); 125 mg/kg-day in data set [2] (duration: 30 days, oral); 0.00027 mg in data set [3] (setting [10]); 1.25 mg/day in data set [3] (setting [11]); 2 mg/day in data set [3] (duration: 4 days, injection, subcutaneous); 100 mg/kg-day in data set [3] (duration: 4 days, oral). Also, the LEL was 2.5 mg/day in data set [3] (duration: 4 days, oral, diet); 5.77 mg in data set [3] (duration: 6 days, oral, diet); 200 mg/kg-day in data set [3] (duration: 7 days, oral); 0.5 mg/day in data set [3] (duration: 10 days, injection, subcutaneous); 2 mg/day and 3 mg/day and 5 mg/day in data set [3] (setting [9]); 25 mg/kg-day in data set [3] (duration: 28 days, injection, subcutaneous).

Turning to `Cc1ccc(O)cc1C` [3,4-Dimethylphenol], the NOEL in data set [4] (chronic, duration: 8 months, Cardiovascular system: Altered blood pressure + Organs, major: Lesions + Whole body: Decreased weight) stood at 1.4 mg/kg-day. In data set [5] (setting [12]), the LOAEL was found to be 14 mg/kg-day and the NOEL came out at 1.4 mg/kg-day.

Consider `COP(=S)(OC)Oc1nc(Cl)c(Cl)cc1Cl` [Chlorpyrifos-methyl], for which the NOAEL in data set [4] (reproduction developmental, duration: 3 years, diet, Liver: Effects + Reproduction: Decreased fertility) came out at 1 mg/kg-day. In data set [2] (Hershberger, duration: 10 days, oral, gavage, Sprague-Dawley, active + Negative + Antiandrogenic + anti-androgenic), the LOEL stood at 50 mg/kg-day.

`CC(=O)[O][Hg][c]1ccccc1` [Phenylmercuric acetate] gave an NOAEL in data set [4] (chronic, duration: 2 years, diet, Kidney: Damage) of 0.0084 mg/kg-day. In data set [5] (M/F, renal damage), this molecule showed an LOAEL of 0.042 mg/kg-day and an NOAEL of 0.0084 mg/kg-day.

Turning to `CCNc1nc(Cl)nc(NCC)n1` [Simazine], the NOAEL in data set [4] (chronic, duration: 2 years, diet, Blood: Hematological effects + Whole body: Decreased weight gain) was 0.52 mg/kg-day; in data set [5] (setting [13]) it was 0.52 mg/kg-day. Further, the LOAEL in data set [5] (setting [13]) was found to be 5.3 mg/kg-day. In addition, the NOEL in data set [2] (Hershberger, duration: 7 days, oral, gavage, Wistar, inactive + Negative + neither + AST wt decreased at 75 and above / doses above 75 associated with >10% decrease in body wt / cite a …) was determined as 6.25 mg/kg-day; in data set [2] (Hershberger, duration: 10 days, oral, gavage, Sprague-Dawley, inactive + Negative + Negative + neither + AST wt decreased at 75 and above / doses above 75 associated with >10% decrease in body wt), 25 mg/kg-day.

Turning to `CC(C)(c1ccc(O)cc1)c1ccc(O)cc1` [Bisphenol A], in data set [6], the LOEL came to 20 mg/kg-day. For the same molecule, the NOEL in data set [6] stood at 2 mg/kg-day; in data set [1] (gavage, Crj:CD, Deaths + Clinical Observation: Loose stool Locomotor activity decrease, Hypopnea Subnormal temperature decrease + Body Weight Changes: …), 40 mg/kg-day. Besides, the NOAEL was 750 ppm in data set [4] (subchronic, duration: 13 weeks, Whole body: Decreased weight); > 640 mg/kg-day in data set [8] (developmental, duration: 10 days, oral, gavage); 75 ppm in data set [8] (reproduction developmental, duration: 13 weeks, oral, diet, generation: F0); 750 ppm in data set [8] (reproduction developmental, duration: 13 weeks, oral, diet, generation: F1). Moreover, the median lethal dose (LD50) in data set [7] is 2230 mg/kg; in data set [8] (acute, oral, Fischer 344), 4100 mg/kg and 3300 mg/kg. Also, the LC50 in data set [8] (acute, inhalation, particle, Fischer 344) was > 170 µg/mL. Also, the LOAEL was 1000 ppm in data set [8] (reproduction developmental, duration: 103 weeks, oral, diet, Fischer 344, generation: F0) and 50 mg/kg-day in data set [5] (M/F, reduced mean body weight). Besides, the LEL in data set [2] (setting [14]) came to 400 mg/kg-day; in data set [2] (duration: 2 days, injection, subcutaneous) it was 200 mg/kg-day; in data set [2] (duration: 4 days, injection, intraperitoneal), 0.5 mg/kg-day; in data set [2] (setting [15]), 11 mg/kg-day; in data set [2] (duration: 7 days, lactation) it was 150 mg/kg-day; in data set [3] (setting [10]) it was 0.00228 mg. In addition, the LEL in data set [3] (setting [14]) was found to be 10 mg/kg-day; in data set [3] (setting [11]), 20 mg/kg-day; in data set [3] (duration: 3 days, osmotic minipump) it was 100 mg/kg-day; in data set [3] (setting [15]) it was 100 mg/kg-day.

The values above are taken from EPA's ToxValDB 9.5.
